Experimental findings from US20260053932A1, “COMPOUNDS AND METHODS FOR THE TARGETED DEGRADATION OF ANDROGEN RECEPTOR AND ASSOCIATED METHODS OF USE” (Arvinas Operations, Inc., priority 2020, published 2026) are described below.

Molecules are shown by their SMILES. Some results are limits rather than exact numbers.

For the assay, the system named is androgen receptor (AR) in LNCaP and/or VCaP cells. Nature of the assay: Androgen Receptor ELISA assay (AR degradation). Format: cell-based. The note with it: degradation of AR ELISA in LNCaP and/or VCaP cells; Table 2C; read-out: DC50 Code*. An outline of the steps: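 VCaP cells grown ≥3 days, then treated 5 h with compound in media containing 1 nM R1881 (10× stock). Cells lysed and AR quantified by sandwich ELISA (mouse AR detection Ab, HRP anti-mouse, TMB). DC50 and Dmax derived from AR degradation.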
(In an ELISA, binding on a coated surface is turned into a signal by an enzyme label.)

Usually DC50 stands for the concentration giving 50% degradation. Turning to `Cc1cc(O[C@H]2C(C)(C)[C@H](NC(=O)c3ccc(N4CCC(CN5CCOC[C@@H]5COc5ccc6c(c5)C(=O)N(C5CCC(=O)NC5=O)C6=O)CC4)cc3)C2(C)C)cc(C)c1C#N` (stereo partly drawn) [compound 213, N-((1r,3R)-3-(4-cyano-3,5-dimethylphenoxy)-2,2,4,4-tetramethylcyclobutyl)-4-(4-(((3R)-3-(((2-(2,6-dioxopiperidin-3-yl)-1,3-dioxoisoindolin-5-yl)oxy)methyl)morpholino)methyl)piperidin-1-yl)benzamide], the DC50 was less than 1 nM.

`CC1(C)[C@H](NC(=O)c2ccc(N3CCC(CN(CCN4CCOCC4)[C@H]4C[C@H](Oc5ccc6c(c5)C(=O)N(C5CCC(=O)NC5=O)C6=O)C4)CC3)cc2)C(C)(C)[C@H]1Oc1ccc(C#N)c(C#N)c1` (stereo partly drawn) [compound 214, N-((1r,3r)-3-(3,4-dicyanophenoxy)-2,2,4,4-tetramethylcyclobutyl)-4-(4-((((1r,3r)-3-((2-(2,6-dioxopiperidin-3-yl)-1,3-dioxoisoindolin-5-yl)oxy)cyclobutyl)(2-morpholinoethyl)amino)methyl)piperidin-1-yl)benzamide]: the DC50 was less than 1 nM.

`COc1cc(OCCN2CCOC3(CCN(c4ccc(C(=O)N[C@H]5C(C)(C)[C@H](Oc6cc(C)c(C#N)c(C)c6)C5(C)C)cc4)CC3)C2)cc2c1C(=O)N(C1CCC(=O)NC1=O)C2=O` (stereo partly drawn) [compound 215, N-((1r,3r)-3-(4-cyano-3,5-dimethylphenoxy)-2,2,4,4-tetramethylcyclobutyl)-4-(4-(2-((2-(2,6-dioxopiperidin-3-yl)-7-methoxy-1,3-dioxoisoindolin-5-yl)oxy)ethyl)-1-oxa-4,9-diazaspiro[5.5]undecan-9-yl)benzamide]: the DC50 is less than 1 nM.

For the compound `CCOc1cc(O[C@H]2C(C)(C)[C@H](NC(=O)c3ccc(N4CC(CN(C(C)C)[C@H]5C[C@H](Oc6ccc7c(c6)C(=O)N(C6CCC(=O)NC6=O)C7=O)C5)C4)cc3)C2(C)C)ccc1C#N` (stereo partly drawn) [compound 217, N-((1r,3r)-3-(4-cyano-3-ethoxyphenoxy)-2,2,4,4-tetramethylcyclobutyl)-4-(3-((((1r,3r)-3-((2-(2,6-dioxopiperidin-3-yl)-1,3-dioxoisoindolin-5-yl)oxy)cyclobutyl) (isopropyl)amino)methyl)azetidin-1-yl)benzamide], the DC50 is less than 1 nM.

With `CC1(C)[C@H](NC(=O)c2ccc(N3CCC(CN(CCN4CCOCC4)[C@H]4C[C@H](Oc5ccc6c(c5)C(=O)N(C5CCC(=O)NC5=O)C6=O)C4)CC3)cc2)C(C)(C)[C@H]1Oc1ccc(C#N)c(Cl)c1` (stereo partly drawn) [compound 219, N-((1r,3r)-3-(3-chloro-4-cyanophenoxy)-2,2,4,4-tetramethylcyclobutyl)-4-(4-((((1r,3r)-3-((2-(2,6-dioxopiperidin-3-yl)-1,3-dioxoisoindolin-5-yl)oxy)cyclobutyl)(2-morpholinoethyl)amino)methyl)piperidin-1-yl)benzamide], the DC50 is less than 1 nM.

On to `Cc1cc(O[C@H]2C(C)(C)[C@H](NC(=O)c3ccc(N4CCC(CN5CCOC[C@H]5COc5ccc6c(c5)C(=O)N(C5CCC(=O)NC5=O)C6=O)CC4)cc3)C2(C)C)cc(C)c1C#N` (stereo partly drawn) [compound 221, N-((1r,3S)-3-(4-cyano-3,5-dimethylphenoxy)-2,2,4,4-tetramethylcyclobutyl)-4-(4-(((3S)-3-(((2-(2,6-dioxopiperidin-3-yl)-1,3-dioxoisoindolin-5-yl)oxy)methyl)morpholino)methyl)piperidin-1-yl)benzamide], for which the 50% degradation concentration (DC50) was less than 1 nM.

On to `Cc1cc(O[C@H]2C(C)(C)[C@H](NC(=O)c3cnc(N4CCC(CN(CCN5CCOCC5)[C@H]5C[C@H](Oc6ccc7c(c6)C(=O)N(C6CCC(=O)NC6=O)C7=O)C5)CC4)cn3)C2(C)C)cc(C)c1C#N` (stereo partly drawn) [compound 230, N-((1r,3r)-3-(4-cyano-3,5-dimethylphenoxy)-2,2,4,4-tetramethylcyclobutyl)-5-(4-((((1r,3r)-3-((2-(2,6-dioxopiperidin-3-yl)-1,3-dioxoisoindolin-5-yl)oxy)cyclobutyl)(2-morpholinoethyl)amino)methyl)piperidin-1-yl)pyrazine-2-carboxamide], for which the DC50 was less than 1 nM.

Turning to `COc1cc(O[C@H]2C[C@H](N(CC3(F)CCN(c4ncc(C(=O)N[C@H]5C(C)(C)[C@H](Oc6cc(C)c(C#N)c(C)c6)C5(C)C)cn4)CC3)C(C)C)C2)cc2c1C(=O)N(C1CCC(=O)NC1=O)C2=O` (stereo partly drawn) [compound 231, N-((1r,3r)-3-(4-cyano-3,5-dimethylphenoxy)-2,2,4,4-tetramethylcyclobutyl)-2-(4-((((1r,3r)-3-((2-(2,6-dioxopiperidin-3-yl)-7-methoxy-1,3-dioxoisoindolin-5-yl)oxy)cyclobutyl) (isopropyl)amino)methyl)-4-fluoropiperidin-1-yl)pyrimidine-5-carboxamide], the DC50 is less than 1 nM.

`CC1(C)[C@H](NC(=O)c2cnc(N3CCC(CN(CCN4CCOCC4)[C@H]4C[C@H](Oc5ccc6c(c5)C(=O)N(C5CCC(=O)NC5=O)C6=O)C4)CC3)cn2)C(C)(C)[C@H]1Oc1ccc(C#N)c(C#N)c1` (stereo partly drawn) [compound 233, N-((1r,3r)-3-(3,4-dicyanophenoxy)-2,2,4,4-tetramethylcyclobutyl)-5-(4-((((1r,3r)-3-((2-(2,6-dioxopiperidin-3-yl)-1,3-dioxoisoindolin-5-yl)oxy)cyclobutyl)(2-morpholinoethyl)amino)methyl)piperidin-1-yl)pyrazine-2-carboxamide]: the DC50 was less than 1 nM.

On to `CC1(C)[C@H](NC(=O)c2ccc(N3CCC(CN4CCN(c5ccc6c(c5)C(=O)N([C@@]5(C#N)CCC(=O)NC5=O)C6)CC4)CC3)cc2)C(C)(C)[C@H]1Oc1ccc(C#N)c(Cl)c1` [compound 234, N-((1r,3r)-3-(3-chloro-4-cyanophenoxy)-2,2,4,4-tetramethylcyclobutyl)-4-(4-((4-(2-((R)-3-cyano-2,6-dioxopiperidin-3-yl)-3-oxoisoindolin-5-yl)piperazin-1-yl)methyl)piperidin-1-yl)benzamide], for which the DC50 was less than 1 nM.

Turning to `COc1cc(O[C@H]2C(C)(C)[C@H](NC(=O)c3ccc(N4CCC(CN(CC(F)F)[C@H]5C[C@H](Oc6cc(OC)c7c(c6)C(=O)N(C6CCC(=O)NC6=O)C7=O)C5)CC4)cc3)C2(C)C)ccc1C#N` (stereo partly drawn) [compound 235, N-((1r,3r)-3-(4-cyano-3-methoxyphenoxy)-2,2,4,4-tetramethylcyclobutyl)-4-(4-(((2,2-difluoroethyl)((1r,3r)-3-((2-(2,6-dioxopiperidin-3-yl)-7-methoxy-1,3-dioxoisoindolin-5-yl)oxy)cyclobutyl)amino)methyl)piperidin-1-yl)benzamide], the DC50 was less than 1 nM.

In the case of `CC1(C)[C@H](NC(=O)c2cnc(N3CCC(CN(CCN4CCOCC4)[C@H]4C[C@H](Oc5ccc6c(c5)C(=O)N(C5CCC(=O)NC5=O)C6=O)C4)CC3)cn2)C(C)(C)[C@H]1Oc1ccc(C#N)c(Cl)c1` (stereo partly drawn) [compound 237, N-((1r,3r)-3-(3-chloro-4-cyanophenoxy)-2,2,4,4-tetramethylcyclobutyl)-5-(4-((((1r,3r)-3-((2-(2,6-dioxopiperidin-3-yl)-1,3-dioxoisoindolin-5-yl)oxy)cyclobutyl)(2-morpholinoethyl)amino)methyl)piperidin-1-yl)pyrazine-2-carboxamide], the DC50 lay in the range of 1 to 10 nM.
